In BigSolDB 2.1:

COC(=O)[C@@H](N)Cc1c[nH]c2ccccc12.Cl
solubility (mole fraction)
Settings | 283.2 K | 288.2 K | 293.2 K | 298.2 K | 303.2 K | 308.2 K | 313.2 K | 318.2 K | 323.2 K
in 2-butanone | 0.000254 | 0.000295 | 0.00034 | 0.000401 | 0.000495 | 0.00058 | 0.000748 | 0.001 | 0.00141
in acetone | 0.000289 | 0.000374 | 0.000489 | 0.000605 | 0.000793 | 0.00104 | 0.00144 | 0.00219 | 0.00343
in acetonitrile | 3.75e-05 | 4.38e-05 | 5.24e-05 | 6.55e-05 | 8.15e-05 | 0.000101 | 0.000123 | 0.000147 | 0.000183
in ethanol | 0.00608 | 0.00634 | 0.00683 | 0.00737 | 0.00812 | 0.00885 | 0.00966 | 0.0108 | 0.012
in ethyl acetate | 4.01e-05 | 4.86e-05 | 5.9e-05 | 7.36e-05 | 0.000101 | 0.000134 | 0.000174 | 0.000226 | 0.000296
in isobutanol | 0.00135 | 0.00142 | 0.0015 | 0.00172 | 0.00205 | 0.00245 | 0.00281 | 0.00326 | 0.00374
in isopropanol | 0.00109 | 0.00122 | 0.00135 | 0.00157 | 0.00176 | 0.00195 | 0.0022 | 0.00241 | 0.00273
in methanol | 0.0291 | 0.0301 | 0.0317 | 0.0334 | 0.0354 | 0.0379 | 0.0403 | 0.0437 | 0.0478
in n-butanol | 0.00221 | 0.00231 | 0.00247 | 0.00263 | 0.00281 | 0.00304 | 0.00327 | 0.0035 | 0.00385
in n-propanol | 0.00303 | 0.00322 | 0.00348 | 0.00376 | 0.00401 | 0.00431 | 0.00465 | 0.00512 | 0.00574
in sec-butanol | 0.0013 | 0.00135 | 0.00149 | 0.00165 | 0.00183 | 0.00206 | 0.00227 | 0.00251 | 0.00296
in water | 0.00839 | 0.00951 | 0.0107 | 0.0125 | 0.015 | 0.0175 | 0.02 | 0.024 | 0.0278
